Data on 17 compounds can be found in patent US8202879B2, “Quinazoline derivatives having tyrosine kinase inhibitory activity” (Shionogi & Co., Ltd., priority 2005, dated 2012).

Test [1] relates to BT-474. The experiment in a line: In vitro cell proliferation inhibition, WST assay. The format is cell-based, human. To be noted: BT-474 cells, cultured for 3 days, read-out: BT-474 (nM) proliferation inhibitory activity (IC50 value). The protocol: Test of In Vitro Cell Proliferation Inhibition of Test Compound
As a human-derived cancer cell strain, BT-474 was used. Cells were all cultured in a 37° C., 5% CO2 incubator in a medium in which 10% bovine fetal serum (ICN) and 50 units ml penicillin/60 μg/ml streptomycin solution (GIBCO) were added to Dulbecco's Modified Essential Medium (DMEM, Nacalai Tesque, Inc).

Test [2] has as its target T1, HER2 (Homo sapiens, UniProt P04626).
T1 construct: purchased Carna Biosciences, Inc; host or cells: insect cell expression system
The experiment in a line: Enzyme inhibitory activity on HER2 (time resolution fluorescence, biotinylated poly-Glu-Tyr substrate). The format is biochemical. To be noted: HER2 purified from insect cell expression system; ATP solution 290 μM; room temperature, 60 minutes. On the procedure: (§1) Enzyme Inhibitory Activity of Test Compound on EGFR and HER2
(§2) EGFR and HER2 purified from an insect cell expression system, and a biotinylated substrate (synthetic peptide of glutamic acid:tyrosine=4:1) were added to a 384-well plate with ATP added thereto, and an enzyme reaction was performed at room temperature. After completion of the enzyme reaction, an anti-phosphorylated tyrosine antibody labeled with europium and streptavidin labeled with alphycocyanine were added, and a phosphorylated tyrosine residue was quantified by a time resolution fluorescence method.
(§3) A test compound was adjusted to 10 mM using DMSO.
(§4) Further, using 10% DMSO solution, a 1 mM solution was prepared, and this was regarded as a maximum concentration point.
(§5) As a dilution series, a 4-fold dilution series was prepared to a 10 stage.
(§6) As a buffer, TBS containing 10 mM MgCl2, 5 mM MnCl2, 0.2 mM Na3VO4, and 0.1% BSA was used.
(§7) As EGFR and HER2 enzymes, those purified from an insect cell expression system were purchased from Carna Biosciences, Inc.
HER2 kinase was adjusted to 1000 ng/ml using a buffer.
(§8) As a substrate, biotinylated poly-Glu-Tyr (4:1, manufactured by CISbio) was used. A concentration was adjusted to 3.125 μg/ml using the above buffer.
An ATP concentration on study of the HER2 enzyme was adjusted to 290 μM.
(§9) For preparing a detection reagent, TBS containing 30 mM EDTA, 0.8M KF and 0.1% BSA was used.
(§10) An anti-phosphorylated tyrosine antibody labeled with europium, PT-66K (CISbio) was adjusted to 195 ng/ml, and streptavidin labeled with alphycocyanine, SA-XL (CISbio) was adjusted to 5 μg/ml.
(§11) As an assay plate, a 384-well plate was used. Per one well, 1.1 μl of a test compound, 4 μl of a substrate solution, and 4 μl of an enzyme solution were added, and 2 μl of an ATP solution was added to initiate an enzyme reaction. The enzyme reaction was performed at room temperature for 60 minutes, and 10 μl of a detection reagent was added to complete the reaction. One hour after completion of the reaction, time resolution fluorescent measurement was performed.

The target in test [3] is T2, EGFR (Homo sapiens, UniProt P00533).
T2 construct: purchased Carna Biosciences, Inc; host or cells: insect cell expression system
The experiment in a line: Enzyme inhibitory activity on EGFR (time resolution fluorescence, biotinylated poly-Glu-Tyr substrate). The format is biochemical. To be noted: EGFR purified from insect cell expression system; ATP solution 125 μM; room temperature, 60 minutes. The protocol: as §1, §2, §3, §4, §5, §6, §7
An EGFR enzyme solution was adjusted to 250 ng/ml using a buffer.
as §8
An ATP concentration on study of the EGFR enzyme was adjusted to 125 μM using the buffer.
as §9, §10, §11

Read-outs that look alike come from different tables or passages of the source.

T2 sequence (P00533 25-1210): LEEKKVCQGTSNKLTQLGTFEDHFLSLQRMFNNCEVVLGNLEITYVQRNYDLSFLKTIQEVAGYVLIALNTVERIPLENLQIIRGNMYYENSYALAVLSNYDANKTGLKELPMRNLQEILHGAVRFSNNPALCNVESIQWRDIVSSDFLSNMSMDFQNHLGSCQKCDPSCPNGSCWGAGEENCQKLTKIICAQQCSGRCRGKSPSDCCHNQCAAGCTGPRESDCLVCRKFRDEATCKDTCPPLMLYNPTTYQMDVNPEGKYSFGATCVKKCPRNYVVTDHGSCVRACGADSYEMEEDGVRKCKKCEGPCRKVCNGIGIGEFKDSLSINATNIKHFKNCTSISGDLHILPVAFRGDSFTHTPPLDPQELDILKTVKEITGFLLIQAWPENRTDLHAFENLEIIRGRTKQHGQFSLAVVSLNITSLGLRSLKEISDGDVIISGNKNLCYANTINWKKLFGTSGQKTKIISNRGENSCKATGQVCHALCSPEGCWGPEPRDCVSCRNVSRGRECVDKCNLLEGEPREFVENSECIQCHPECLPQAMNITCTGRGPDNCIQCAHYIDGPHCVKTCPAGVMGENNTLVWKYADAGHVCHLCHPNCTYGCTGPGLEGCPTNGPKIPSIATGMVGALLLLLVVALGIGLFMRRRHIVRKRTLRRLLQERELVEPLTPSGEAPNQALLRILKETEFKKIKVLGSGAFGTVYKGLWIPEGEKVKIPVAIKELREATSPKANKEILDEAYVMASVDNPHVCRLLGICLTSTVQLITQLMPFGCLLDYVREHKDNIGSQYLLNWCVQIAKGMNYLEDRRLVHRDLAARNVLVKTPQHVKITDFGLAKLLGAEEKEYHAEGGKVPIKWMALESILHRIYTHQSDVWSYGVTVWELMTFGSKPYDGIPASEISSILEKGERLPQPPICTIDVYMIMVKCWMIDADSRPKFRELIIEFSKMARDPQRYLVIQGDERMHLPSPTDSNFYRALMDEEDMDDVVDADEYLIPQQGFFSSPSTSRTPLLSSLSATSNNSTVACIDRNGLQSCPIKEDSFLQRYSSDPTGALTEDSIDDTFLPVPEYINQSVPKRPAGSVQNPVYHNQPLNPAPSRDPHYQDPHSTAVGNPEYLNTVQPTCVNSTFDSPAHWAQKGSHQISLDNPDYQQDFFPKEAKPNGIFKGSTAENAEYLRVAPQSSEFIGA
T1 sequence (P04626 23-1255): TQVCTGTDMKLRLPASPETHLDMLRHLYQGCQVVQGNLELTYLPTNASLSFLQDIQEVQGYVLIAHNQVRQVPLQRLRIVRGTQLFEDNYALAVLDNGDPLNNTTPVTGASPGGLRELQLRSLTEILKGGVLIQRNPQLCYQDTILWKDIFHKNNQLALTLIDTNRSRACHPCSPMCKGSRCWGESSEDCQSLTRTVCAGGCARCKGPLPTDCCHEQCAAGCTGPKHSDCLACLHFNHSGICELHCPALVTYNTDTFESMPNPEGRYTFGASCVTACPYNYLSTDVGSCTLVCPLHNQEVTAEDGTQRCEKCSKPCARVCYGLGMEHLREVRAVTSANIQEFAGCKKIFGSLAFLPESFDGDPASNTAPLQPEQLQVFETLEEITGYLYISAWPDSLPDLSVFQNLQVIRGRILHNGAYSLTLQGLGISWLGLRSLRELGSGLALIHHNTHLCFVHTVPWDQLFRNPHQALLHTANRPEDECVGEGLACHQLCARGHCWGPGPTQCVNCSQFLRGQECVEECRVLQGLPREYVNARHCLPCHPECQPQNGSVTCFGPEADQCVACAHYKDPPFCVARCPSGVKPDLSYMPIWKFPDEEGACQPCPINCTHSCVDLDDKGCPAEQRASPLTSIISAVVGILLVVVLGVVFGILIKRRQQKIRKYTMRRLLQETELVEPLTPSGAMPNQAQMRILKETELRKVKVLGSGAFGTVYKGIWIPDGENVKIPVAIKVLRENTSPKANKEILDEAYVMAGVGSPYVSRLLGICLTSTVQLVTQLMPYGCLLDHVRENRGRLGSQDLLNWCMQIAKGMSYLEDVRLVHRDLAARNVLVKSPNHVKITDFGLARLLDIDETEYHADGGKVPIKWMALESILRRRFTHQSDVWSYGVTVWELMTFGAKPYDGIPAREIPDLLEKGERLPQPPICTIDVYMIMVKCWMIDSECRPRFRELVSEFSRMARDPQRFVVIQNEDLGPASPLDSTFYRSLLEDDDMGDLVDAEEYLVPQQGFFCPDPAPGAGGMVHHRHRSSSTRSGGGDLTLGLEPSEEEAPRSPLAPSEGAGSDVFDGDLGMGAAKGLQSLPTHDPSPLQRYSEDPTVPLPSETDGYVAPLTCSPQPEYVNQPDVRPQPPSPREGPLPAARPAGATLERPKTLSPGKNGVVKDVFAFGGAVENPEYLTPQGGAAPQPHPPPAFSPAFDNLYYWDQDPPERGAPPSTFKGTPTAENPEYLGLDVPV

On to `CC#C/C(=N\OC[C@H]1CCCN1CCO)c1ccc2ncnc(Nc3ccc(OCc4cccc(F)c4)c(Cl)c3)c2c1` [VIII-90], for which the IC50 in test [1] was determined as 9 nM; in test [2], 97 nM; in test [3] it was 93 nM.

Regarding `CC#C/C(=N\OC[C@H]1CCCN1C)c1ccc2ncnc(Nc3ccc(OCc4cccc(F)c4)c(Cl)c3)c2c1` [VIII-91], the IC50 in test [1] was 24 nM; in test [2] it was 83 nM; in test [3], 74 nM.

In the case of `CC#C/C(=N\O[C@H]1CN[C@H](CO)C1)c1ccc2ncnc(Nc3ccc(OCc4cccc(F)c4)c(Cl)c3)c2c1` [VIII-92], the IC50 in test [1] was 29 nM; in test [2], 36 nM; in test [3], 32 nM.

With `CC#C/C(=N\OCCN1C[C@@H](C)O[C@@H](C)C1)c1ccc2ncnc(Nc3ccc(OCc4cccc(F)c4)c(Cl)c3)c2c1` [VIII-93], the IC50 was determined as 38 nM in test [1] (Homo sapiens, BT-474, 72 h); 321 nM in test [2]; 453 nM in test [3].

On to `CC#C/C(=N\OCCN1CCNC(=O)C1)c1ccc2ncnc(Nc3ccc(OCc4cccc(F)c4)c(Cl)c3)c2c1` [VIII-94], for which the IC50 amounted to 26 nM in test [1] (Homo sapiens, BT-474, 72 h); 150 nM in test [2]; 213 nM in test [3].

For `CC#C/C(=N\OCCN1CCS(=O)(=O)CC1)c1ccc2ncnc(Nc3ccc(OCc4cccc(F)c4)c(Cl)c3)c2c1` [VIII-95], the IC50 was 25 nM in test [1], 176 nM in test [2] and 209 nM in test [3].

Turning to `CC#C/C(=N\OCCN1CCN(C)CC1)c1ccc2ncnc(Nc3ccc(OCc4cccc(F)c4)c(Cl)c3)c2c1` [VIII-96], the values for the IC50 in test [1], in test [2] and in test [3] were 30 nM, 20 nM and 20 nM, respectively.

Consider `CC#C/C(=N\OCCN1CCC(O)CC1)c1ccc2ncnc(Nc3ccc(OCc4cccc(F)c4)c(Cl)c3)c2c1` [VIII-97], for which the results for the IC50 in test [1], in test [2] and in test [3] were 11 nM, 22 nM and 19 nM, respectively.

As to `CC#C/C(=N\OCCN1CCC(N)CC1)c1ccc2ncnc(Nc3ccc(OCc4cccc(F)c4)c(Cl)c3)c2c1` [VIII-98], the IC50 was 65 nM in test [1], 21 nM in test [2] and 21 nM in test [3].

For the compound `CC#C/C(=N\OCCN1CCC(NC(C)=O)CC1)c1ccc2ncnc(Nc3ccc(OCc4cccc(F)c4)c(Cl)c3)c2c1` [VIII-99], the IC50 turned out to be 24 nM in test [1] (Homo sapiens, BT-474, 72 h); 84 nM in test [2]; 84 nM in test [3].

As for `CC#C/C(=N\OCCN1CCC(NS(C)(=O)=O)CC1)c1ccc2ncnc(Nc3ccc(OCc4cccc(F)c4)c(Cl)c3)c2c1` [VIII-100], the IC50 worked out at 16 nM in test [1] (Homo sapiens, BT-474, 72 h); 203 nM in test [2]; 208 nM in test [3].

For `CC#C/C(=N\OC[C@@H]1COCCN1)c1ccc2ncnc(Nc3ccc(OCc4cccc(F)c4)c(Cl)c3)c2c1` [VIII-101], the IC50 in test [1] is 12 nM; in test [2], 129 nM; in test [3], 56 nM.

Take `CC#C/C(=N\OC[C@H]1COCCN1)c1ccc2ncnc(Nc3ccc(OCc4cccc(F)c4)c(Cl)c3)c2c1` [VIII-102]: the figures for the IC50 in test [1], in test [2] and in test [3] were 7 nM, 121 nM and 72 nM, respectively.

`CC#CC(=NOCC1CNCCN1)c1ccc2ncnc(Nc3ccc(OCc4cccc(F)c4)c(Cl)c3)c2c1` (stereo not drawn) [VIII-103]: the IC50 in test [1] (Homo sapiens, BT-474, 72 h) is 11 nM; in test [2], 5.6 nM; in test [3] it was 3.9 nM.

On to `CC#C/C(=N\OC[C@@H]1COCCN1CC#N)c1ccc2ncnc(Nc3ccc(OCc4cccc(F)c4)c(Cl)c3)c2c1` [VIII-104], for which the IC50 came to 60 nM in test [1], 202 nM in test [2] and 238 nM in test [3].

For the compound `CC#C/C(=N\OC[C@H]1CNCCN1)c1ccc2ncnc(Nc3ccc(OCc4cccc(F)c4)c(Cl)c3)c2c1` [VIII-105], the IC50 in test [1] was found to be 10 nM; in test [2], 14 nM; in test [3], 14 nM.

With `CC#C/C(=N\OC[C@@H]1NCCO[C@H]1C)c1ccc2ncnc(Nc3ccc(OCc4cccc(F)c4)c(Cl)c3)c2c1` [VIII-106], the IC50 was found to be 16 nM in test [1] (Homo sapiens, BT-474, 72 h); 148 nM in test [2]; 160 nM in test [3].
